We go through four molecules from patent US20250145961A1, “GENERATING BONE MARROW ORGANOIDS” (The University of Birmingham, priority 2022, published 2025).

Holding throughout (type): cell-based, human
The subject of one experiment is MF-patient organoids. In words: Bone marrow organoids engrafted with CD34+ cells from patients with myelofibrosis, screen of potential therapies (immunofluorescence of paraffin embedded sections). Particulars: organoids seeded with MF patient cells for 14 days, treatment at day 7 post engraftment, 0.1 and 1 uM, vs DMSO treated. The procedure:
FIG. 12: Organoids engrafted with CD34^+ cells from patients with myelofibrosis can be used to screen potential therapies in a patient specific approach. Bone marrow organoids were seeded with cells from patients with myelofibrosis for 14 days in total, with pharmacological interventions staged at day 7 post engraftment. […] Samples were also treated with the inhibitor SB431542, the BET bromodomain inhibitor JQ1, and the current clinical treatment for myelofibrosis ruxolitinib (at 0.1 and 1 uM respectively). […] (B) Representative immunofluorescence imaging of paraffin embedded sections.
Cells were isolated from cryopreserved peripheral blood or bone marrow mononuclear cells and stained with CellVue Claret Far Red Fluorescent Cell Linker Mini Kit for General Membrane Labeling (Sigma Aldrich, Cat #MINCLARET-1KT) following the instructions provided by the manufacturer. Organoids were seeded with 5000 cells per wells and cultured for 8-14 days in StemPro. On collection day, organoids were fixed for imaging or digested for assessment by flow cytometry or RNA extraction and qRT PCR.
Sections were blocked using 2% Goat Serum (Thermo Fisher Scientific, Cat #31872) 1% Bovine Serum Albumin (BSA) (Sigma, Cat #A9418) prior to primary antibody labelling with antibody diluted in 1% BSA, sequential PBS washes, and finally secondary labelling with AlexaFluor conjugates. […]

In a further experiment the test system is bone marrow organoids. The experiment is described as follows: TGFβ-induced fibrosis of bone marrow organoids (immunofluorescence, qRT PCR). The following applies: for TGFβ-induced collagen deposition / TGFβ-induced αSMA expression: bone marrow organoids stimulated with TGFβ, N=4 and 3 respectively, Kruskal-Wallis with multiple comparisons. From the text:
FIG. 7: Treatment of organoids with TGFβ induced fibrosis of the organoids, modelling bone marrow fibrosis seen in patients. […] Increase of signal in these images is indicative of treatment inducing classic markers of fibrosis. […] Finally, we confirmed the utility of this model to screen for potential inhibitors of bone marrow fibrosis. […] (N=4 and 3 respectively, significance testing with Kruskal-Wallis with multiple comparisons).
To model myelofibrosis (MF), we treated bone marrow organoids with Transforming Growth Factor β (TGFβ, Peprotech) at various concentrations for 72 hours. Treated organoids were maintained in this media before collection via pasteurette and fixation for immunofluorescence (whole organoids or embedded sections), or centrifugation for RNA extraction and subsequent quantitative Real Time Polymerase Chain Reaction (qRT PCR assessment of changes in gene expression). RNA extraction was performed using the Qiagen RNAEasy micro kit to the manufacturer's instructions.
qRT-PCR was performed on an Applied Biosystems 7500 Fast Real Time PCR System. Primers were obtained from Integrated DNA Technologies (IDT) as pre-validated PrimeTime qPCR primers. Reactions were prepared from lug of isolated RNA converted to cDNA with the High Capacity cDNA Reverse Transcription Kit (Applied Biosystems) under manufacturer recommended thermal cycling conditions. Synthesised cDNA was diluted 5-fold and stored at −20° C. until required.
A master mix was prepared for each qPCR reaction which was made up of 10 μl TaqMan® Universal Primer MasterMix (thermos), 1 μl of forward and reverse primers, and 2 μl of cDNA at a final concentration of 5 ng/mL. Calculations for fold changes in expression were performed using the ΔΔCT method, with human GAPDH used as a housekeeping gene, and undifferentiated iPSC used as controls for expression levels.
Immunofluorescence was performed using a Zeiss LSM880 confocal microscope (25×0.8 LD LCI plan apo 0.8 dual immersion objective). Samples were prepared first by fixation in 10% formalin, before 3×5 min successive washes with PBS. Samples were then blocked overnight in a detergent blocking solution comprised of 2% goat serum (Thermo), 1% Bovine Serum Albumin (BSA) in 50 mL of PBS. 250 μl of Triton X100 and Tween-20 (Sigma) were added, as well as 500 μl sodium deoxycholate (Sigma) to permeabilise samples and encourage antibody preparation. Primary antibody incubations were performed overnight at 4° C., before 4×5-minute successive washes in PBS. Samples were then incubated overnight once more at 4° C. in secondary antibody mixes: DAPI for nuclear labelling, Alexa-488, Alxea-568, and Alexa-647 (Thermo) depending on the species mix of antibodies present.

The test system of another experiment is organoid endothelium. In words: Addition of VEGFC to the organoid growth factor cocktail, specialisation of organoid endothelium. The source says:
FIG. 4: Addition of VEGFC induces specialisation of organoid endothelium to resemble bone marrow sinusoidal endothelium. The protocol thus far generated an organoid producing the key lineages of the central human bone marrow. However, bone marrow sinusoidal endothelium, is a highly specialised for regulating haematopoeitic cell behaviours.
FIG. 5: VEGFC induces development of CD34+ sinusoidal vascular network in organoids. […] Immunofluorescence images show significant staining of the vessels in the VEGFA+C treated sample when compared to VEGFA. (B) Close association of CD41+ megakaryocytes with vessels in the organoids. […] (C) CD41+ megakaryocytes are shown forming pro-platelet extensions in sections of BM organoids.
Once fully polymerised, 3D cultures were supplemented in Phase III sprouting medium which was comprised of APELII medium supplemented with 5% Foetal Bovine Serum (FBS), 5 U/mL Heparin Sulfate, 50 ng VEGFA, 10 ng each Interleukin 3 (IL3) and Interleukin 6 (IL6), as well as 25 ng each of SCF, Flt3, Thrombopoietin (TPO), Erythropoietin (EPO), Granulocyte Colony Stimulating Factor (G-CSF) (Stem Cell Technologies), FGF2, and BMP4. Cells were maintained in this media formulation until d12, with media changes every 72 hours. From d5 onwards, media changes are performed as 60:40 splits fresh: conditioned medium. […]

As for `Cc1sc2c(c1C)C(c1ccc(Cl)cc1)=N[C@@H](CC(=O)OC(C)(C)C)c1nnc(C)n1-2` [JQ1], in the experiment with MF-patient organoids, the “COL1A1 level, immunofluorescence” value is given as “significant reductions” and the “αSMA level, immunofluorescence” value is listed as “significantly reduced”. In addition, in the experiment with bone marrow organoids, the TGFβ-induced collagen deposition entry was “significantly reduced” and the “TGFβ-induced αSMA expression” value is listed as “significantly reduced”.
In the case of `NC(=O)c1ccc(-c2nc(-c3ccc4c(c3)OCO4)c(-c3ccccn3)[nH]2)cc1` [SB431542], in the experiment with bone marrow organoids, the TGFβ-induced collagen deposition result is on record as “significantly reduced” and the “TGFβ-induced αSMA expression” value is recorded as “significantly reduced”.
As to TGFβ, the “expression of α-smooth muscle actin (α-SMA) and collagen I (COL1A1), staining” value in the experiment with bone marrow organoids (72-hours of stimulation, compared to an untreated control) is “increase in the expression”. Moreover, the “canonical fibrosis markers by qRT PCR” value with bone marrow organoids (various concentrations of TGFβ for 72 hours) is “dose dependent increase”.

B1: VEGFC: Vascular Endothelial Growth Factor C (Stem Cell Technologies), growth factor supplemented into medium (protein, UniProt P49767 112-227, looked up)
Vascular endothelial growth …: AHYNTEILKSIDNEWRKTQCMPREVCIDVGKEFGVATNTFFKPPCVSVYRCGGCCNSEGLQCMNTSTSYLSKTLFEITVPLSQGPKPVTISFANHTSCRCMSKLDVYRQVHSIIRR
Take B1: the “CD34 expression of organoid vessels, immunofluorescence” value in the experiment on organoid endothelium (VEGFA+C treated compared to VEGFA) was “induces vessels in the organoid that maintain the expression of CD34”. The “expression of adhesion molecules and hematopoietic regulatory factors (VEGFR3, VCAM1, VLA4, FGF4, CXCR4) in endothelial cells” value with organoid endothelium (VEGFC added to VEGFA, compared to VEGFA or VEGFC alone) is given as “improved the expression”.
